Measurements published in US20040091477A1, “Immunosuppresive compositions” (priority 2003, published 2004).
Marks after values point to notes of the source that are not given here.

Key:
[1] = biological target: platelet activating factor receptor (PAFR) (Homo sapiens, UniProt P25105); settings: cited from earlier work
[2] = tested on: isolated rat hearts; assay: Reperfusion-induced arrhythmias (VF, VT) in isolated hearts of orally treated rats, 30 min global ischemia and 2 hours reperfusion; type: in vivo; settings: control 92%
Experimental: (§1) Male Sprague-Dawley rats were used for all studies. Rats were anesthetized with intraperitoneal pentobarbital sodium (60 mg/kg body weight) and then given intravenous heparin (500 IU/kg). After thoracotomy, the heart was excised and placed in ice cold perfusion buffer. Immediately after preparation, the aorta was cannulated, and the heart was perfused according to Langendorf method for a 5-min washout period at a constant perfusion pressure equivalent to 100 cm of water (10 kPa). The perfusion medium consisted of a modified Krebs-Henseleit bicarbonate buffer: 118 mM NaCl, 4.7 mM KCl, 1.7 mM CaCl2, 25 mM NaHCO3, 0.36 mM KH2PO4, 1.2 mM MgSO4, and 10 mM glucose. The left atrium was cannulated and the Langendorff system was switched to the working mode with a left atrial filling pressure of 17 cm of buffer (1.7 kPa) and aortic afterload pressure of 100 cm (10 kPa) of buffer. Aortic flow was measured by a calibrated rotameter, and coronary flow rate was measured by a timed collection of the coronary perfusate that dripped from the heart. After 10 min aerobic perfusion of the heart, the atrial inflow and aortic outflow lines were clamped at a point close to the origin of the aortic cannula. Reperfusion was initiated by unclamping the atrial inflow and aortic outflow lines. […] An epicardial ECG was recorded by a polygraph throughout the experimental period by two silver electrodes attached directly to the heart. ECGs were analyzed to determine the incidence of ventricular fibrillation (VF) and ventricular tachycardia (VT) and whether VF was non-sustained (spontaneously reverting to regular rhythm) or sustained (persisting through the first 3 min of reperfusion). After 3 min of ventricular fibrillation (sustained VF) hearts were defibrillated and myocardial function was recorded. The heart was considered to be in VF if an irregular undulating baseline was apparent on the ECG. […] In each instance, VT spontaneously switched to sinus rhythm or VF, therefore VT was considered non-sustained. The heart was considered to be in sinus rhythm if normal sinus complexes occurring in a regular rhythm were apparent on the ECG. Before ischemia and during reperfusion, heart rate (HR), coronary flow (CF) and aortic flow (AF) rates were registered. Left ventricular developed pressure (LVDP) which was defined as the difference between left ventricular systolic and end-diastolic pressure, and the first derivative of LVDP (+LVdp/dtmax) were also recorded (Experimetria, UK) by the insertion of a catheter into the left ventricle via the left atrium and mitral valve. […] Cardiac function data (HR, CF, AF, LVDP, and LVdp/dtmax), were expressed as the mean±SEM. One-way analysis of variance was first carried out, to test for any differences between the mean values of all groups. If differences were established, the values of the control, drug-free group were compared with those of the drug treated groups by a two-tailed t-test with the Bonferroni correction (Wallenstein et al., 1980, Circ. Res. 47:1-9). An analogue procedure was followed for distribution of discrete variables such as the incidence of VF and VT. An overall chi-square test for a 2×n table was constructed followed by a sequence of 2×2 chi-square tests to compare individual groups. A change of p<0.05 was considered significant.

[3] = tested on: isolated rat hearts; assay: Cardiac function of isolated working hearts of orally treated rats, 30 min global ischemia followed by reperfusion; type: ex vivo
Experimental: as §1

[4] = cited from earlier work
[5] = tested on: cAMP-specific phosphodiesterase; settings: cited from earlier work
[6] = Schussler et al. 1995; cited from earlier work
[7] = FK506 1 mg/kg/day oral 10 days, after 30-min reperfusion
[8] = FK506 1 mg/kg/day oral 10 days, after 60-min reperfusion
[9] = FK506 1 mg/kg/day oral 10 days, after 120-min reperfusion
[10] = FK506 5 mg/kg/day oral 10 days, after 30-min reperfusion
[11] = FK506 5 mg/kg/day oral 10 days, after 60-min reperfusion
[12] = FK506 5 mg/kg/day oral 10 days, after 120-min reperfusion
[13] = FK506 10 mg/kg/day oral 10 days, after 30-min reperfusion
[14] = FK506 10 mg/kg/day oral 10 days, after 60-min reperfusion
[15] = FK506 10 mg/kg/day oral 10 days, after 120-min reperfusion
[16] = FK506 20 mg/kg/day oral 10 days, after 30-min reperfusion
[17] = FK506 20 mg/kg/day oral 10 days, after 60-min reperfusion
[18] = FK506 20 mg/kg/day oral 10 days, after 120-min reperfusion
[19] = FK506 40 mg/kg/day oral 10 days, after 30-min reperfusion
[20] = FK506 40 mg/kg/day oral 10 days, after 60-min reperfusion
[21] = FK506 40 mg/kg/day oral 10 days, after 120-min reperfusion

Chain of platelet activating factor receptor (PAFR) (P25105 whole entry, species assumed, the tested form may be a part): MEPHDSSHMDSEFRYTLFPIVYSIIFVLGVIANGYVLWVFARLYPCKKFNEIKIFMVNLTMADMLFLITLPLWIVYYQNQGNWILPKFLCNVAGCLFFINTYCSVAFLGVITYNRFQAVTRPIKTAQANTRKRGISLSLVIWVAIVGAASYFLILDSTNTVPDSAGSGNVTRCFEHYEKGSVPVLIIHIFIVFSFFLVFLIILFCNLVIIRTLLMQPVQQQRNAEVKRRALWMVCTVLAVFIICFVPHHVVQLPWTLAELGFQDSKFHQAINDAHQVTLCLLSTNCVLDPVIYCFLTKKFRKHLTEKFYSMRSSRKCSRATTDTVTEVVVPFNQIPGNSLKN

## COc1ccc(NC(=S)N2CCc3c(sc4c3C(c3ccccc3Cl)=NCc3nnc(C)n3-4)C2)cc1 [BN 50730]
[1]; more potent than BN52021
  PAFR antagonistic activity compared to BN52021: up to several 10-fold

## C=CC[C@@H]1/C=C(\C)C[C@H](C)C[C@H](OC)[C@H]2O[C@@](O)(C(=O)C(=O)N3CCCC[C@H]3C(=O)O[C@H](/C(C)=C/[C@@H]3CC[C@@H](O)[C@H](OC)C3)[C@H](C)[C@@H](O)CC1=O)[C@H](C)C[C@@H]2OC [FK506, tacrolimus]
[2]; FK506 1 mg/kg/day oral 10 days
  incidence of reperfusion-induced total (irreversible plus reversible) VF: 92%
[2]; FK506 5 mg/kg/day oral 10 days
  incidence of reperfusion-induced total (irreversible plus reversible) VF: 83%
[2]; FK506 10 mg/kg/day oral 10 days
  incidence of reperfusion-induced total (irreversible plus reversible) VF: 67%
[2]; FK506 20 mg/kg/day oral 10 days
  incidence of reperfusion-induced total (irreversible plus reversible) VF: 33%
[2]; FK506 40 mg/kg/day oral 10 days
  incidence of reperfusion-induced total (irreversible plus reversible) VF: 25%
[3]; [7]
  +dP/dtmax: 422 ± 28 kPa/s
  AF (aortic flow): 10.6 ± 0.4 mL/min
  CF (coronary flow): 18.2 ± 1.0 mL/min
  HR (heart rate): 315 ± 9 beats/min
  LVDP (left ventricular developed pressure): 10.7 ± 0.6 kPa
[3]; [8]
  +dP/dtmax: 447 ± 26 kPa/s
  CF (coronary flow): 16.9 ± 0.9 mL/min
  HR (heart rate): 306 ± 8 beats/min
  LVDP (left ventricular developed pressure): 11.9 ± 0.5 kPa
[3]; FK506 1 mg/kg/day oral 10 days, after 60-min reperfusion, 1 mg/kg/day
  AF (aortic flow): 10.9 ± 1.8 mL/min
[3]; FK506 1 mg/kg/day oral 10 days, after 60-min reperfusion, listed as FK 506, 1 mg/kg/day
  AF (aortic flow): 10.9 ± 0.6 mL/min
[3]; [9]
  +dP/dtmax: 432 ± 17 kPa/s
  AF (aortic flow): 10.1 ± 0.6 mL/min
  CF (coronary flow): 17.5 ± 0.7 mL/min
  HR (heart rate): 302 ± 9 beats/min
  LVDP (left ventricular developed pressure): 11.2 ± 0.3 kPa
[3]; [10]
  +dP/dtmax: 430 ± 34 kPa/s
  AF (aortic flow): 12.0 ± 0.9 mL/min
  CF (coronary flow): 18.0 ± 1.1 mL/min
  HR (heart rate): 298 ± 7 beats/min
  LVDP (left ventricular developed pressure): 11.0 ± 0.4 kPa
[3]; [11]
  +dP/dtmax: 463 ± 23 kPa/s
  AF (aortic flow): 13.3 ± 1.0 mL/min
  CF (coronary flow): 18.4 ± 0.7 mL/min
  HR (heart rate): 282 ± 7 beats/min
  LVDP (left ventricular developed pressure): 12.0 ± 0.7 kPa
[3]; [12]
  +dP/dtmax: 451 ± 32 kPa/s
  AF (aortic flow): 11.2 ± 0.8 mL/min
  CF (coronary flow): 18.1 ± 0.8 mL/min
  HR (heart rate): 279 ± 8 beats/min
  LVDP (left ventricular developed pressure): 11.5 ± 0.4 kPa
[3]; [13]
  +dP/dtmax: 478 ± 44^a kPa/s
  AF (aortic flow): 12.0 ± 1.2 mL/min
  CF (coronary flow): 20.0 ± 1.4 mL/min
  HR (heart rate): 308 ± 8 beats/min
  LVDP (left ventricular developed pressure): 11.5 ± 0.5 kPa
[3]; [14]
  +dP/dtmax: 472 ± 32 kPa/s
  AF (aortic flow): 13.3 ± 1.2 mL/min
  CF (coronary flow): 19.6 ± 1.2 mL/min
  HR (heart rate): 310 ± 9 beats/min
  LVDP (left ventricular developed pressure): 12.3 ± 0.7 kPa
[3]; [15]
  +dP/dtmax: 463 ± 29 kPa/s
  AF (aortic flow): 11.4 ± 0.7 mL/min
  CF (coronary flow): 18.8 ± 0.7 mL/min
  HR (heart rate): 307 ± 7 beats/min
  LVDP (left ventricular developed pressure): 11.7 ± 0.6 kPa
[3]; [16]
  +dP/dtmax: 536 ± 28^a kPa/s
  AF (aortic flow): 17.4 ± 0.8^a ml/min
  CF (coronary flow): 23.1 ± 1.1^a ml/min
  HR (heart rate): 298 ± 9 beats/min
  LVDP (left ventricular developed pressure): 13.5 ± 0.6^a kPa
[3]; [17]
  +dP/dtmax: 544 ± 31^a kPa/s
  AF (aortic flow): 19.8 ± 1.5^a ml/min
  CF (coronary flow): 22.0 ± 1.1^a ml/min
  HR (heart rate): 297 ± 8 beats/min
  LVDP (left ventricular developed pressure): 14.1 ± 0.6^a kPa
[3]; [18]
  +dP/dtmax: 519 ± 26^a kPa/s
  AF (aortic flow): 17.3 ± 1.1^a ml/min
  CF (coronary flow): 21.2 ± 1.1^a ml/min
  HR (heart rate): 295 ± 6 beats/min
  LVDP (left ventricular developed pressure): 13.2 ± 0.5^a kPa
[3]; [19]
  +dP/dtmax: 557 ± 31^a kPa/s
  AF (aortic flow): 20.6 ± 1.3^a ml/min
  CF (coronary flow): 24.7 ± 1.5^a ml/min
  HR (heart rate): 291 ± 7 beats/min
  LVDP (left ventricular developed pressure): 14.1 ± 0.6^a kPa
[3]; [20]
  +dP/dtmax: 594 ± 26^a kPa/s
  AF (aortic flow): 22.9 ± 2.1^a ml/min
  CF (coronary flow): 23.5 ± 0.8^a ml/min
  HR (heart rate): 286 ± 9 beats/min
  LVDP (left ventricular developed pressure): 15.3 ± 0.6^a kPa
[3]; [21]
  +dP/dtmax: 568 ± 33^a kPa/s
  AF (aortic flow): 20.0 ± 1.8^a ml/min
  CF (coronary flow): 22.8 ± 1.8^a ml/min
  HR (heart rate): 289 ± 8 beats/min
  LVDP (left ventricular developed pressure): 14.6 ± 0.6^a kPa
[3]; FK506 treatment, before ischemia, versus drug-free group
  change of preischemic HR, CF, AF, LVDP and +LVdP/dtmax (in words): No significant changes
[4]; continuous intravenous infusion, severe acute GVHD
  plasma concentrations: 0.025 to 0.035 µg/mL
[4]; low doses (0.1 mg/kg or less)
  blood levels: ~0.01 µg/mL
  fraction of treated patients with greater than 1 year graft survival: > 70%

## C[C@@H]1C(=O)O[C@H]2C[C@@]34[C@H]5C[C@@H](C(C)(C)C)[C@]36[C@@H](OC(=O)[C@@H]6O)O[C@@]4(C(=O)O5)[C@]21O [Ginkgolide A]
[1]
  PAFR antagonist activity (in words): PAFR antagonist

## C[C@@H]1C(=O)O[C@@H]2[C@H]1[C@@]13OC4OC(=O)[C@H](O)C45[C@H](C(C)(C)C)[C@@H](O)C(OC1=O)[C@]53[C@H]2O (some centres unmarked) [Ginkgolide M]
[1]
  PAFR antagonist activity (in words): PAFR antagonist activity

## COc1ccc(-c2cc(=O)c3c(O)cc(O)c(-c4cc(-c5cc(=O)c6c(O)cc(OC)cc6o5)ccc4OC)c3o2)cc1 [Sciadopitysin]
[5]
  cAMP phosphodiesterase inhibitory activity (in words): almost inactive

## O=c1cc(-c2ccc(O)c(O)c2)oc2cc(O[C@@H]3O[C@H](CO)[C@@H](O)[C@H](O)[C@H]3O)cc(O)c12 [luteolin-7-glucoside]
[6]
  cardioprotective effects: 186%

## Ginkgolide J
[1]
  PAFR antagonist activity (in words): PAFR antagonist activity

## ginkgolide C
[1]
  PAFR antagonist activity (in words): PAFR antagonist
